Earlier results, collected in US20220313671A1 (Chiesi Farmaceutici S.p.A., priority 2011, published 2022).

## CCCC(=O)OCOC(=O)C1=C(C)NC(C)=C(C(=O)OC)C1c1cccc(Cl)c1Cl (stereo not drawn) [clevidipine]
Rapid offset of activity
  full offset of activity: 5 to 15 min
Rapid onset of activity
  onset of activity: 2 to 4 min
Time after discontinuation of clevidipine
  return of blood pressure to pre-treatment levels: 5 to 15 min
